Laboratory results taken from paper PMC5218480 (PLoS ONE, 2017).

Test system: MV-4-11 cells
Test: Gene expression microarray analysis (Affymetrix PrimeView) and GSEA
Type: cell-based, human
Design: RFU PODN (11730768_x_at) / Fold change /veh PODN (11730768_x_at) / RFU LINC00158 (11744669_a_at) / Fold change /veh LINC00158 (11744669_a_at) / RFU DUSP10 (11751237_a_at) / Fold change /veh DUSP10 (11751237_a_at) / RFU ID3 (11757404_x_at) / Fold change /veh ID3 (11757404_x_at) / RFU PLEKHG5 (11737974_s_at) / Fold change /veh PLEKHG5 (11737974_s_at) / RFU LRRC4B (11730491_at) / Fold change /veh LRRC4B (11730491_at) / RFU GIMAP4 (11747438_a_at) / Fold change /veh GIMAP4 (11747438_a_at) / RFU KRT8 (11758183_x_at) / Fold change /veh KRT8 (11758183_x_at) / RFU CNN1 (11734310_a_at) / Fold change /veh CNN1 (11734310_a_at) / RFU VPS37D (11726825_at) / Fold change /veh VPS37D (11726825_at) / RFU C10orf10 (11716522_x_at) / Fold change /veh C10orf10 (11716522_x_at) / RFU KIR2DL2 /// KIR2DL4 /// KIR2DL5A /// KIR2DL5B /// KIR2DS1 /// KIR2DS2 /// KIR2DS3 /// KIR2DS4 /// KIR3DL3 /// KIR3DL3 /// KIR3DS1 (11738374_at) / Fold change /veh KIR2DL2 /// KIR2DL4 /// KIR2DL5A /// KIR2DL5B /// KIR2DS1 /// KIR2DS2 /// KIR2DS3 /// KIR2DS4 /// KIR3DL3 /// KIR3DL3 /// KIR3DS1 (11738374_at) / RFU C1QL1 (11718748_at) / Fold change /veh C1QL1 (11718748_at) / RFU TMPRSS4 (11747572_a_at) / Fold change /veh TMPRSS4 (11747572_a_at) / RFU HAMP (11756126_x_at) / Fold change /veh HAMP (11756126_x_at) / RFU RNFT2 (11725882_a_at) / Fold change /veh RNFT2 (11725882_a_at) / RFU NR4A2 (11747474_a_at) / Fold change /veh NR4A2 (11747474_a_at) / RFU ABCC12 (11746883_a_at) / Fold change /veh ABCC12 (11746883_a_at) / RFU TMEM136 (11760407_x_at) / Fold change /veh TMEM136 (11760407_x_at) / RFU CLDN22 /// WWC2 (11732394_at) / Fold change /veh CLDN22 /// WWC2 (11732394_at) / RFU HLA-DPB1 (11760878_x_at) / Fold change /veh HLA-DPB1 (11760878_x_at) / RFU SPINT1 (11716480_a_at) / Fold change /veh SPINT1 (11716480_a_at) / RFU GAP43 (11754022_s_at) / Fold change /veh GAP43 (11754022_s_at) / RFU A4GNT (11735810_at) / Fold change /veh A4GNT (11735810_at) / RFU PRB3 (11715151_x_at) / Fold change /veh PRB3 (11715151_x_at) / RFU TUBB4B (11761932_at) / Fold change /veh TUBB4B (11761932_at) / RFU CAPN14 (11732068_a_at) / Fold change /veh CAPN14 (11732068_a_at) / RFU TMCC2 (11721928_a_at) / Fold change /veh TMCC2 (11721928_a_at) / RFU IRGQ (11745062_a_at) / Fold change /veh IRGQ (11745062_a_at) / RFU FAM174B (11720279_a_at) / Fold change /veh FAM174B (11720279_a_at) / RFU TMPRSS4 (11748680_a_at) / Fold change /veh TMPRSS4 (11748680_a_at) / RFU FAM212B (11763350_a_at) / Fold change /veh FAM212B (11763350_a_at) / RFU PLEKHG5 (11743358_a_at) / Fold change /veh PLEKHG5 (11743358_a_at) / RFU ZSCAN30 (11745921_a_at) / Fold change /veh ZSCAN30 (11745921_a_at) / RFU CMKLR1 (11741424_a_at) / Fold change /veh CMKLR1 (11741424_a_at) / RFU LOC101060620 /// MAPK8IP1 (11723275_at) / Fold change /veh LOC101060620 /// MAPK8IP1 (11723275_at) / RFU SPTSSB (11747773_x_at) / Fold change /veh SPTSSB (11747773_x_at) / RFU PRSS12 (11739890_at) / Fold change /veh PRSS12 (11739890_at) / RFU BIN1 (11741810_x_at) / Fold change /veh BIN1 (11741810_x_at) / RFU WNT11 (11732464_a_at) / Fold change /veh WNT11 (11732464_a_at) / RFU C10orf10 (11716521_a_at) / Fold change /veh C10orf10 (11716521_a_at) / RFU C5orf56 (11738089_at) / Fold change /veh C5orf56 (11738089_at) / RFU CYB561 (11721691_x_at) / Fold change /veh CYB561 (11721691_x_at) / RFU ANKRD19P (11752326_a_at) / Fold change /veh ANKRD19P (11752326_a_at) / RFU OR2T12 /// OR2T33 /// OR2T8 (11738714_s_at) / Fold change /veh OR2T12 /// OR2T33 /// OR2T8 (11738714_s_at) / RFU VCAN (11748164_a_at) / Fold change /veh VCAN (11748164_a_at) / RFU JSRP1 (11732532_at) / Fold change /veh JSRP1 (11732532_at) / RFU KRTAP10-11 (11738290_x_at) / Fold change /veh KRTAP10-11 (11738290_x_at) / RFU MYO3A (11730013_a_at) / Fold change /veh MYO3A (11730013_a_at) / RFU EBF3 (11725865_a_at) / Fold change /veh EBF3 (11725865_a_at) / RFU CAMK2N1 (11719241_x_at) / Fold change /veh CAMK2N1 (11719241_x_at) / RFU C5orf56 (11738088_a_at) / Fold change /veh C5orf56 (11738088_a_at) / RFU OLFML3 (11715873_a_at) / Fold change /veh OLFML3 (11715873_a_at) / RFU LOC100653217 /// NTM (11731650_a_at) / Fold change /veh LOC100653217 /// NTM (11731650_a_at) / RFU MAPK11 (11762145_a_at) / Fold change /veh MAPK11 (11762145_a_at) / RFU FIZ1 (11724087_x_at) / Fold change /veh FIZ1 (11724087_x_at) / RFU OASL (11726364_x_at) / Fold change /veh OASL (11726364_x_at) / RFU SOX15 (11748057_x_at) / Fold change /veh SOX15 (11748057_x_at) / RFU CD79A (11719716_a_at) / Fold change /veh CD79A (11719716_a_at) / RFU HIST1H1D (11736915_at) / Fold change /veh HIST1H1D (11736915_at) / RFU CASKIN2 (11723855_a_at) / Fold change /veh CASKIN2 (11723855_a_at) / RFU LOC730098 (11760151_x_at) / Fold change /veh LOC730098 (11760151_x_at) / RFU OR4N2 (11742367_at) / Fold change /veh OR4N2 (11742367_at) / RFU PRRT2 (11749266_a_at) / Fold change /veh PRRT2 (11749266_a_at) / RFU SNX32 (11753110_a_at) / Fold change /veh SNX32 (11753110_a_at) / RFU CDHR5 (11726645_a_at) / Fold change /veh CDHR5 (11726645_a_at) / RFU RCAN1 (11760418_a_at) / Fold change /veh RCAN1 (11760418_a_at) / RFU FAM167A (11723789_a_at) / Fold change /veh FAM167A (11723789_a_at) / RFU FAM26E (11764081_at) / Fold change /veh FAM26E (11764081_at) / RFU ISYNA1 (11749810_s_at) / Fold change /veh ISYNA1 (11749810_s_at) / RFU ACY1 (11761880_at) / Fold change /veh ACY1 (11761880_at) / RFU 11764098_at / Fold change /veh 11764098_at / RFU SAMD14 (11745864_x_at) / Fold change /veh SAMD14 (11745864_x_at) / RFU NPB (11741838_a_at) / Fold change /veh NPB (11741838_a_at) / RFU TMPRSS6 (11731388_a_at) / Fold change /veh TMPRSS6 (11731388_a_at) / RFU KRTAP10-2 (11738614_at) / Fold change /veh KRTAP10-2 (11738614_at) / RFU ARHGAP8 /// PRR5-ARHGAP8 (11727945_x_at) / Fold change /veh ARHGAP8 /// PRR5-ARHGAP8 (11727945_x_at) / RFU KRTAP5-7 /// NADSYN1 (11734609_at) / Fold change /veh KRTAP5-7 /// NADSYN1 (11734609_at) / RFU RASL12 (11751679_a_at) / Fold change /veh RASL12 (11751679_a_at) / RFU CDKN2B (11736163_a_at) / Fold change /veh CDKN2B (11736163_a_at) / RFU PRF1 (11729649_at) / Fold change /veh PRF1 (11729649_at) / RFU, ZNF638 /// ZNF638-IT1 / Fold change vs veh, ZNF638 /// ZNF638-IT1 / RFU, PANK3 / Fold change vs veh, PANK3 / RFU, SH3YL1 / Fold change vs veh, SH3YL1 / RFU, ZEB2 / Fold change vs veh, ZEB2 / RFU, NRIP1 / Fold change vs veh, NRIP1 / RFU, PTTG1IP / Fold change vs veh, PTTG1IP / RFU, CAPN2 / Fold change vs veh, CAPN2 / RFU, MED14 / Fold change vs veh, MED14 / RFU, SNORA58 / Fold change vs veh, SNORA58 / RFU, C1orf63 / Fold change vs veh, C1orf63 / RFU, LRRFIP1 / Fold change vs veh, LRRFIP1 / RFU, NDUFAF7 / Fold change vs veh, NDUFAF7 / RFU, SLC12A2 / Fold change vs veh, SLC12A2 / RFU, IBTK / Fold change vs veh, IBTK / RFU, ESF1 / Fold change vs veh, ESF1 / Fold change vs veh, TMEM50B / RFU, TAOK1 / Fold change vs veh, TAOK1 / RFU, ACBD3 / Fold change vs veh, ACBD3 / RFU, TMA16 / Fold change vs veh, TMA16 / RFU, RWDD3 / Fold change vs veh, RWDD3 / RFU, BCAT1 / Fold change vs veh, BCAT1 / RFU, EDEM3 / Fold change vs veh, EDEM3 / RFU, TMEM33 / Fold change vs veh, TMEM33 / RFU, WDR75 / Fold change vs veh, WDR75 / RFU, AHCTF1 / Fold change vs veh, AHCTF1 / RFU, TFRC / Fold change vs veh, TFRC / RFU, ZDHHC17 / Fold change vs veh, ZDHHC17 / RFU, NOM1 / Fold change vs veh, NOM1 / RFU, ARL8B / Fold change vs veh, ARL8B / RFU, ZBTB11 / Fold change vs veh, ZBTB11 / RFU, TAMM41 / Fold change vs veh, TAMM41 / RFU, KIAA1704 /// LOC100996395 / Fold change vs veh, KIAA1704 /// LOC100996395 / RFU, ING1 / Fold change vs veh, ING1 / RFU, TRMT61B / Fold change vs veh, TRMT61B / RFU, FUBP3 / Fold change vs veh, FUBP3 / RFU, TP53 / Fold change vs veh, TP53 / RFU, TNKS2 / Fold change vs veh, TNKS2 / RFU, ZFP14 / Fold change vs veh, ZFP14 / RFU, ACTR2 / Fold change vs veh, ACTR2 / RFU, PPP3R1 / Fold change vs veh, PPP3R1 / RFU, PIK3R1 / Fold change vs veh, PIK3R1 / RFU, HNRNPA1 / Fold change vs veh, HNRNPA1 / RFU, RNF170 / Fold change vs veh, RNF170 / RFU, ZNF28 / Fold change vs veh, ZNF28 / RFU, RNGTT / Fold change vs veh, RNGTT / RFU, OGT / Fold change vs veh, OGT / RFU, BRD1 / Fold change vs veh, BRD1 / RFU, MARS / Fold change vs veh, MARS / RFU, ZNF655 / Fold change vs veh, ZNF655 / RFU, FAHD1 / Fold change vs veh, FAHD1 / RFU, BDP1 / Fold change vs veh, BDP1 / RFU, LRRCC1 / Fold change vs veh, LRRCC1 / RFU, ARID1A / Fold change vs veh, ARID1A / RFU, ZNF146 / Fold change vs veh, ZNF146 / RFU, ZNF330 / Fold change vs veh, ZNF330 / RFU, GPN3 / Fold change vs veh, GPN3 / RFU, C9orf123 / Fold change vs veh, C9orf123 / RFU, N4BP2L2 / Fold change vs veh, N4BP2L2 / RFU, ARFIP1 / Fold change vs veh, ARFIP1 / RFU, FAM179B / Fold change vs veh, FAM179B / RFU, BCL10 / Fold change vs veh, BCL10 / RFU, UHRF1BP1L / Fold change vs veh, UHRF1BP1L / RFU, BET1 / Fold change vs veh, BET1 / RFU, CNOT2 / Fold change vs veh, CNOT2 / RFU, ZNF268 / Fold change vs veh, ZNF268 / Fold change vs veh, ZNF507 / RFU, DGCR2 / Fold change vs veh, DGCR2 / RFU, WDSUB1 / Fold change vs veh, WDSUB1 / Fold change vs veh, HSP90B1 /// MIR3652 / RFU, ADSS / Fold change vs veh, ADSS / RFU, GK / Fold change vs veh, GK / RFU, ZNF148 / Fold change vs veh, ZNF148 / RFU, TAF9 / Fold change vs veh, TAF9 / RFU, SLC1A5 / Fold change vs veh, SLC1A5 / RFU, SLMO2 / Fold change vs veh, SLMO2 / RFU, ABCC4 / Fold change vs veh, ABCC4 / RFU, LOC101060439 /// RAP1B / Fold change vs veh, LOC101060439 /// RAP1B / RFU, RFX7 / Fold change vs veh, RFX7 / RFU, GTPBP10 / Fold change vs veh, GTPBP10 / RFU, CNEP1R1 / Fold change vs veh, CNEP1R1 / RFU, BIVM-ERCC5 /// ERCC5 / Fold change vs veh, BIVM-ERCC5 /// ERCC5 / RFU, ILF3 / Fold change vs veh, ILF3 / RFU 11762660_at / Fold change /veh 11762660_at / RFU VCAN (11757783_s_at) / Fold change /veh VCAN (11757783_s_at) / RFU DDX43 (11728927_at) / Fold change /veh DDX43 (11728927_at) / RFU KRT8 (11758188_x_at) / Fold change /veh KRT8 (11758188_x_at) / RFU NKD1 (11759106_at) / Fold change /veh NKD1 (11759106_at) / RFU SRD5A1 (11742802_a_at) / Fold change /veh SRD5A1 (11742802_a_at) / RFU TPSAB1 /// TPSB2 (11721975_s_at) / Fold change /veh TPSAB1 /// TPSB2 (11721975_s_at) / RFU GSTM3 (11746129_a_at) / Fold change /veh GSTM3 (11746129_a_at) / RFU IL23R (11737362_x_at) / Fold change /veh IL23R (11737362_x_at) / RFU TMEM51 (11727254_a_at) / Fold change /veh TMEM51 (11727254_a_at) / RFU PIWIL2 (11732686_x_at) / Fold change /veh PIWIL2 (11732686_x_at) / RFU ORM1 (11744905_x_at) / Fold change /veh ORM1 (11744905_x_at) / RFU CCDC152 (11743942_at) / Fold change /veh CCDC152 (11743942_at) / RFU ECM1 (11717891_a_at) / Fold change /veh ECM1 (11717891_a_at) / RFU IL23R (11748794_a_at) / Fold change /veh IL23R (11748794_a_at) / RFU TNFAIP8L3 (11732012_x_at) / Fold change /veh TNFAIP8L3 (11732012_x_at) / RFU MBOAT4 (11741988_at) / Fold change /veh MBOAT4 (11741988_at) / RFU 11764193_at / Fold change /veh 11764193_at / RFU TMEM53 (11763286_at) / Fold change /veh TMEM53 (11763286_at) / RFU MAGEB2 (11727129_at) / Fold change /veh MAGEB2 (11727129_at) / RFU TMEM200A (11744735_a_at) / Fold change /veh TMEM200A (11744735_a_at) / RFU CCDC152 (11751479_a_at) / Fold change /veh CCDC152 (11751479_a_at) / RFU FAM211A (11726209_a_at) / Fold change /veh FAM211A (11726209_a_at) / RFU RGS16 (11746705_a_at) / Fold change /veh RGS16 (11746705_a_at) / RFU VCAN (11755009_s_at) / Fold change /veh VCAN (11755009_s_at) / RFU RHOB (11743442_s_at) / Fold change /veh RHOB (11743442_s_at) / RFU RGS16 (11720943_a_at) / Fold change /veh RGS16 (11720943_a_at) / RFU RGS16 (11720944_at) / Fold change /veh RGS16 (11720944_at) / RFU, VPS4B / Fold change vs veh, VPS4B / RFU, CREB1 / Fold change vs veh, CREB1 / RFU, DNAJC13 / Fold change vs veh, DNAJC13 / RFU, GNAQ / Fold change vs veh, GNAQ / RFU, CDK5R1 / Fold change vs veh, CDK5R1 / RFU, ZRANB3 / Fold change vs veh, ZRANB3 / RFU, CUL4A / Fold change vs veh, CUL4A / RFU, CCNY / Fold change vs veh, CCNY / RFU, UFL1 / Fold change vs veh, UFL1 / RFU, COG3 / Fold change vs veh, COG3 / RFU, DIAPH2 / Fold change vs veh, DIAPH2 / RFU, SKA2 / Fold change vs veh, SKA2 / RFU, AFF3 / Fold change vs veh, AFF3 / RFU, LMF1 / Fold change vs veh, LMF1 / RFU, IPO11 / Fold change vs veh, IPO11 / RFU, DFFB / Fold change vs veh, DFFB / RFU, FOXP1 / Fold change vs veh, FOXP1 / RFU, CARD8 / Fold change vs veh, CARD8 / RFU, STRN3 / Fold change vs veh, STRN3 / RFU, ADK / Fold change vs veh, ADK / RFU, RASSF2 / Fold change vs veh, RASSF2 / RFU, WIPF1 / Fold change vs veh, WIPF1 / RFU, LARP1B / Fold change vs veh, LARP1B / RFU, RASA1 / Fold change vs veh, RASA1 / RFU, RB1 / Fold change vs veh, RB1 / RFU, PPFIA1 / Fold change vs veh, PPFIA1 / RFU, MAT2A / Fold change vs veh, MAT2A / RFU, CCT5 / Fold change vs veh, CCT5 / RFU, WDR92 / Fold change vs veh, WDR92 / RFU, CUX1 / Fold change vs veh, CUX1 / RFU, TTC7A / Fold change vs veh, TTC7A / RFU, TMEM135 / Fold change vs veh, TMEM135 / RFU, DEPTOR / Fold change vs veh, DEPTOR / RFU, CPM / Fold change vs veh, CPM / RFU, DNAJB6 / Fold change vs veh, DNAJB6 / RFU, CACNA2D3 / Fold change vs veh, CACNA2D3 / RFU, DTX4 / Fold change vs veh, DTX4 / RFU, TFCP2 / Fold change vs veh, TFCP2 / RFU, GMCL1 /// GMCL1P1 / Fold change vs veh, GMCL1 /// GMCL1P1 / RFU, AEBP2 / Fold change vs veh, AEBP2 / RFU, SNHG1 /// SNORD22 /// SNORD25 /// SNORD26 /// SNORD27 /// SNORD28 /// SNORD29 /// SNORD31 / Fold change vs veh, SNHG1 /// SNORD22 /// SNORD25 /// SNORD26 /// SNORD27 /// SNORD28 /// SNORD29 /// SNORD31 / Fold change (Aza/veh), C12orf56 (ProbeSet 11735607_a_at) / Fold change (ACY-1035/veh), C12orf56 (ProbeSet 11735607_a_at) / Fold change (Aza/veh), FGFR1OP (ProbeSet 11751329_s_at) / Fold change (ACY-1035/veh), FGFR1OP (ProbeSet 11751329_s_at) / Fold change (Aza/veh), VPS36 (ProbeSet 11739960_a_at) / Fold change (ACY-1035/veh), VPS36 (ProbeSet 11739960_a_at) / RFU SYPL1 (11715823_x_at) / Fold change /veh SYPL1 (11715823_x_at) / RFU IGFBP7 (11715501_s_at) / Fold change /veh IGFBP7 (11715501_s_at) / RFU REEP3 (11722064_at) / Fold change /veh REEP3 (11722064_at) / RFU IGLL1 (11728026_x_at) / Fold change /veh IGLL1 (11728026_x_at): dose or concentration left out as unconfirmed
Conditions: ProbeSet 11749781_s_at; LIST B

With `Nc1ccc(-c2cccs2)cc1NC(=O)c1ccc2c(c1)cc(C1CC1)n2CCN1CCOCC1` [ACY-1035] the “Fold change vs veh, BCAT1” value was 0.87.
